Data: PubChem BioAssay (NCI)
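Interpolation was linear, between the two tested concentrations surrounding the appropriate level; five concentrations were tested over 48 hours in 96-well plates. The concentration for 50% growth inhibition is given as GI50. Definition used: TGI = concentration required for complete inhibition of growth.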

The compounds below were run on SK-MEL-5 melanoma (assay: NCI-60 cell line screen, 48 h).

Compound	GI50	TGI
Cc1cc(I)cc(CN(CCCN(C)C)C(C)C)c1O	16.4 µM	30.2 µM
c1ccc(Sc2ncnc3ccccc23)cc1	11.4 µM	24 µM
CCN(C(=O)N1CCN(c2cc3c(cc2F)c(=O)c(C(=O)O)cn3C2CC2)CC1)c1nc(-c2ccc(Cl)cc2)cs1	1.99 µM	15.9 µM
CC(C)=CCC(O)C1=CC(=O)c2c(O)ccc(O)c2C1=O (centres undefined)		1.88 µM

These compounds were tested on KM12 colon (assay: NCI-60 cell line screen, 48 h).

Compound	GI50	TGI
Cc1cc(I)cc(CN(CCCN(C)C)C(C)C)c1O	18 µM	36 µM
c1ccc(Sc2ncnc3ccccc23)cc1	13.2 µM	28.2 µM
CCN(C(=O)N1CCN(c2cc3c(cc2F)c(=O)c(C(=O)O)cn3C2CC2)CC1)c1nc(-c2ccc(Cl)cc2)cs1	1.29 µM	> 100 µM
CC(C)=CCC(O)C1=CC(=O)c2c(O)ccc(O)c2C1=O (centres undefined)		16.9 µM

What follows are compounds tested on MALME-3M melanoma (assay: NCI-60 cell line screen, 48 h).

Compound	GI50	TGI
Cc1cc(I)cc(CN(CCCN(C)C)C(C)C)c1O	21.6 µM	40.8 µM
c1ccc(Sc2ncnc3ccccc23)cc1	10.8 µM	29.8 µM
CCN(C(=O)N1CCN(c2cc3c(cc2F)c(=O)c(C(=O)O)cn3C2CC2)CC1)c1nc(-c2ccc(Cl)cc2)cs1	1.38 µM	5.95 µM

The compounds below were run on K-562 leukemia (assay: NCI-60 cell line screen, 48 h).

Compound	GI50	TGI
Cc1cc(I)cc(CN(CCCN(C)C)C(C)C)c1O	16.3 µM	34.7 µM
c1ccc(Sc2ncnc3ccccc23)cc1	9.72 µM	> 100 µM
CCN(C(=O)N1CCN(c2cc3c(cc2F)c(=O)c(C(=O)O)cn3C2CC2)CC1)c1nc(-c2ccc(Cl)cc2)cs1	1.13 µM	> 100 µM
CC(C)=CCC(O)C1=CC(=O)c2c(O)ccc(O)c2C1=O (centres undefined)		0.602 µM

These compounds were tested on HS 578T breast (assay: NCI-60 cell line screen, 48 h).

Compound	GI50	TGI
Cc1cc(I)cc(CN(CCCN(C)C)C(C)C)c1O	18.1 µM	35.6 µM
c1ccc(Sc2ncnc3ccccc23)cc1	29.5 µM	> 100 µM
CCN(C(=O)N1CCN(c2cc3c(cc2F)c(=O)c(C(=O)O)cn3C2CC2)CC1)c1nc(-c2ccc(Cl)cc2)cs1	1.26 µM	13 µM
CC(C)=CCC(O)C1=CC(=O)c2c(O)ccc(O)c2C1=O (centres undefined)		6.2 µM

The compounds below were run on IGROV1 ovarian (assay: NCI-60 cell line screen, 48 h).

Compound	GI50	TGI
Cc1cc(I)cc(CN(CCCN(C)C)C(C)C)c1O	15.9 µM	31.7 µM
c1ccc(Sc2ncnc3ccccc23)cc1	4.5 µM	34.3 µM
CCN(C(=O)N1CCN(c2cc3c(cc2F)c(=O)c(C(=O)O)cn3C2CC2)CC1)c1nc(-c2ccc(Cl)cc2)cs1	0.538 µM	1.79 µM
CC(C)=CCC(O)C1=CC(=O)c2c(O)ccc(O)c2C1=O (centres undefined)		3.31 µM

The compounds below were run on TK-10 renal (assay: NCI-60 cell line screen, 48 h).

Compound	GI50	TGI
Cc1cc(I)cc(CN(CCCN(C)C)C(C)C)c1O	18.2 µM	33.1 µM
c1ccc(Sc2ncnc3ccccc23)cc1	27.6 µM	> 100 µM
CCN(C(=O)N1CCN(c2cc3c(cc2F)c(=O)c(C(=O)O)cn3C2CC2)CC1)c1nc(-c2ccc(Cl)cc2)cs1	2.89 µM	> 51.9 µM
CC(C)=CCC(O)C1=CC(=O)c2c(O)ccc(O)c2C1=O (centres undefined)		3.04 µM

Each compound was assayed on SF-268 CNS (assay: NCI-60 cell line screen, 48 h).

Compound	GI50	TGI
Cc1cc(I)cc(CN(CCCN(C)C)C(C)C)c1O	17.1 µM	32.9 µM
c1ccc(Sc2ncnc3ccccc23)cc1	13.9 µM	41.7 µM
CCN(C(=O)N1CCN(c2cc3c(cc2F)c(=O)c(C(=O)O)cn3C2CC2)CC1)c1nc(-c2ccc(Cl)cc2)cs1	1.28 µM	> 100 µM
CC(C)=CCC(O)C1=CC(=O)c2c(O)ccc(O)c2C1=O (centres undefined)		6.09 µM

Each compound was assayed on SN12C renal (assay: NCI-60 cell line screen, 48 h).

Compound	GI50	TGI
Cc1cc(I)cc(CN(CCCN(C)C)C(C)C)c1O	37.8 µM	> 100 µM
c1ccc(Sc2ncnc3ccccc23)cc1	10.8 µM	27.4 µM
CCN(C(=O)N1CCN(c2cc3c(cc2F)c(=O)c(C(=O)O)cn3C2CC2)CC1)c1nc(-c2ccc(Cl)cc2)cs1	0.991 µM	> 100 µM
CC(C)=CCC(O)C1=CC(=O)c2c(O)ccc(O)c2C1=O (centres undefined)		1.45 µM

What follows are compounds tested on CCRF-CEM leukemia (assay: NCI-60 cell line screen, 48 h).

Compound	GI50	TGI
Cc1cc(I)cc(CN(CCCN(C)C)C(C)C)c1O	0.116 µM	1.03 µM
c1ccc(Sc2ncnc3ccccc23)cc1	2.9 µM	61.4 µM
CCN(C(=O)N1CCN(c2cc3c(cc2F)c(=O)c(C(=O)O)cn3C2CC2)CC1)c1nc(-c2ccc(Cl)cc2)cs1	2.45 µM	> 100 µM
CC(C)=CCC(O)C1=CC(=O)c2c(O)ccc(O)c2C1=O (centres undefined)		0.399 µM

The compounds below were run on MDA-N (assay: NCI-60 cell line screen, 48 h).

Compound	TGI
CC(C)=CCC(O)C1=CC(=O)c2c(O)ccc(O)c2C1=O (centres undefined)	2.3 µM

What follows are compounds tested on UACC-257 melanoma (assay: NCI-60 cell line screen, 48 h).

Compound	GI50	TGI
Cc1cc(I)cc(CN(CCCN(C)C)C(C)C)c1O	16.7 µM	32.5 µM
c1ccc(Sc2ncnc3ccccc23)cc1	11.9 µM	34.7 µM
CCN(C(=O)N1CCN(c2cc3c(cc2F)c(=O)c(C(=O)O)cn3C2CC2)CC1)c1nc(-c2ccc(Cl)cc2)cs1	2.53 µM	7.3 µM
CC(C)=CCC(O)C1=CC(=O)c2c(O)ccc(O)c2C1=O (centres undefined)		3.24 µM

What follows are compounds tested on NCI/ADR-RES ovarian (assay: NCI-60 cell line screen, 48 h).

Compound	GI50	TGI
Cc1cc(I)cc(CN(CCCN(C)C)C(C)C)c1O	23.1 µM	61.6 µM
c1ccc(Sc2ncnc3ccccc23)cc1	11.8 µM	35 µM
CCN(C(=O)N1CCN(c2cc3c(cc2F)c(=O)c(C(=O)O)cn3C2CC2)CC1)c1nc(-c2ccc(Cl)cc2)cs1	2.07 µM	13.7 µM

Each compound was assayed on NCI-H226 lung (assay: NCI-60 cell line screen, 48 h).

Compound	GI50	TGI
Cc1cc(I)cc(CN(CCCN(C)C)C(C)C)c1O	25.7 µM	> 100 µM
c1ccc(Sc2ncnc3ccccc23)cc1	13.4 µM	56.2 µM
CCN(C(=O)N1CCN(c2cc3c(cc2F)c(=O)c(C(=O)O)cn3C2CC2)CC1)c1nc(-c2ccc(Cl)cc2)cs1	1.79 µM	5.2 µM
CC(C)=CCC(O)C1=CC(=O)c2c(O)ccc(O)c2C1=O (centres undefined)		2.3 µM

The compounds below were run on BT-549 breast (assay: NCI-60 cell line screen, 48 h).

Compound	GI50	TGI
Cc1cc(I)cc(CN(CCCN(C)C)C(C)C)c1O	11.5 µM	23.9 µM
c1ccc(Sc2ncnc3ccccc23)cc1	5.42 µM	22 µM
CCN(C(=O)N1CCN(c2cc3c(cc2F)c(=O)c(C(=O)O)cn3C2CC2)CC1)c1nc(-c2ccc(Cl)cc2)cs1	1.02 µM	5.61 µM
CC(C)=CCC(O)C1=CC(=O)c2c(O)ccc(O)c2C1=O (centres undefined)		3.17 µM

What follows are compounds tested on MDA-MB-231 breast (assay: NCI-60 cell line screen, 48 h).

Compound	GI50	TGI
Cc1cc(I)cc(CN(CCCN(C)C)C(C)C)c1O	18.1 µM	43.6 µM
